In US20240382626A1, “IRRADIATION AMENABLE LIPOSOMAL DYE AGGREGATES AND METHODS OF SYNTHESIS AND USE THEREOF” (Board of Regents, The University of Texas System, priority 2023, published 2024):
“Also recorded” adds a separate entry of the source.

Assays:
[1] = Photostability during pulsed-laser photoacoustic imaging; format: physicochemical
Experimental: All photoacoustic imaging was performed using the VEVO LAZR-X and F2 Systems (FUJIFILM VisualSonics, Toronto, Canada). The system was calibrated per manufacturer instructions prior to all experiments. Equal concentrations of IcG, IcG-JA, and L-JA were loaded into the plastic tubes before coupling the imaging phantom to the transducer with ultrasound gel. For base characterization, a full spectral scan from 680 nm to 970 nm was performed. Photostability measurements were obtained by imaging at either 800 nm or 890 nm for 30 minutes. At five-minute intervals, which equated to nearly every 1400 pulses (˜280 pulses per minute), the scan was paused to allow for a full spectral scan to be performed. RAW data files from the system were exported and were analyzed using custom software written in MATLAB.

HUVECs = assay: MTS cytotoxicity assay; format: cell-based; conditions: 24 hr incubation, p<0.05
Experimental: The cytotoxicity of L-JA, IcG-JA, and IcG was evaluated on HUVECs and HEK-293T cell lines. The HUVECs were cultured in MCDB-131 medium supplemented with 10% (v/v) fetal bovine serum, 1% L-glutamine, 1% penicillin-streptomycin, and 1% endothelial cell growth supplement. The HEK-293T cells were cultured in Dulbecco's modified Eagle medium (DMEM) supplemented with 10% (v/v) fetal bovine serum and 1% penicillin-streptomycin. Both cell lines were incubated at 37° C. with 5% CO2 in a humidified atmosphere. The HUVEC and HEK-293T cells were seeded at the density of 10,000 cells per well and 5,000 cells per well in 96 well plates. After 24 hours, the culture media was replaced with fresh media containing L-JA, IcG-JA, and IcG at the concentration of 0.25 mM, 0.2 mM, 0.1 mM, and 0.05 mM. Cells incubated without particles were used as a control group. After 24 hours, the culture media was replaced with […] of fresh media. 20 μl of a mixture of [3-(4,5-dimethylthiazol-2-yl)-5-(3-carboxymethoxyphenyl)-2-(4-sulfophenyl)-2H-tetrazolium] (MTS) and phenazine ethosulfate (PES) was then added to each well. The cells were further incubated for 4 hours at 37° C. The absorbance signal at 490 nm was measured using a BioTek plate reader.

[2] = In vitro photothermal heating with 808 nm and 852 nm lasers; conditions: 808 nm laser
Excerpt: To assess the heating capacity of IcG and L-JA solutions, two different laser setups were utilized. All laser components including diodes, mounts, fiber optic cables, lens, and adapters were acquired from ThorLabs (Thorlabs Inc., Newton, NJ, USA) Two different laser diodes, one 808 nm the other 852 nm, were mounted, aligned, and focused in view of a high-resolution IR camera and tracked using accompanying software (Teledyne FLIR, Wilsonville, OR, USA). The 852 nm laser system included an optical isolator (ThorLabs) in the light path as recommended by the manufacturer, but otherwise the systems were identical. Laser power was calibrated to 1 W/cm^2 for both lasers and across all experiments. All experiments were conducted in 24- or 96-well plates filled with corresponding contrast agent solutions placed at the focus of the laser and IR camera.

[3] = test system: mouse kidney and surrounding tissue; assay: In vivo contrast enhancement and circulation by photoacoustic imaging; set-up: species or system mice; conditions: systemic administration
Excerpt: Particle circulation was monitored by imaging the mouse kidney and surrounding tissue. The kidney is a high blood flow organ that has the distinct advantage of being easily and rapidly identifiable using ultrasound imaging. Simple setup and identification decreases the amount of time animals are under anesthesia and limits any potential artificial lowering of SO2 due to prolonged exposure to anesthetic agents. Once prepped, mice placed in the imaging system were imaged with power-doppler to confirm blood flow and baseline values for SO2 and contrast agent signals (FIG. 13). Following a bolus injection of a 5 mg/kg dose of contrast agent via the tail vein, the same region was monitored at varying time points. After processing with FUJIFILM VisualSonics' proprietary spectral unmixing software the images were analyzed using in-house MATLAB software. Power-doppler images guide the placement of ROIs around areas of high blood flow allowing isolation and calculation of SO2 and contrast agent signal over the course of imaging.
To assess their performance in vivo, particles were injected intravenously via the tail vein. Particle circulation was monitored by imaging the mouse kidney and surrounding tissue. […] Following a bolus injection of contrast agent via the tail vein, the same region was monitored at multiple time points. […]

time until PA signal fully quenches ([1]; 800 nm laser pulses): 25 min
photoacoustic signal drop ([1]; 800 nm laser pulses, just under 5 pulses per second, after just over 5 minutes / between 5 and 10 minutes): more than 50%
photodegradation (in words) ([1]; 30 minutes of imaging at 800 nm): completely photodegraded
Structure (SMILES): CC1(C)C(/C=C/C=C/C=C/C=C2\N(CCCCS(=O)(=O)O)c3ccc4ccccc4c3C2(C)C)=[N+](CCCCS(=O)(=O)[O-])c2ccc3ccccc3c21 [IcG, Indocyanine Green]
concentration at which significant cytotoxicity relative to control occurs (HUVECs): 200 µM
behaviour on repeated (cyclic) laser heating (in words) [2]: can only be heated once
clearance / circulation (in words) [3]: cleared from circulation within an hour; also recorded: fully cleared over the course of a few minutes
